# Experimental data from publication PMC10619430, “Xenobiotic Exposure and Migraine-Associated Signaling: A Multimethod Experimental Study Exploring Cellular Assays in Combination with Ex Vivo and In Vivo Mouse Models” (Environmental Health Perspectives, 2023).
# Tests used:
# Format in all cases: cell-based
# [1] = biological target: T1, human TRPA1 channel (hTRPA1) (Homo sapiens, UniProt O75762); assay: fluo-4 calcium imaging in hTRPA1-HEK vs control cells at […]; details: read-out: % of ionomycin response at 100 μM
# T1 sequence (O75762 whole entry): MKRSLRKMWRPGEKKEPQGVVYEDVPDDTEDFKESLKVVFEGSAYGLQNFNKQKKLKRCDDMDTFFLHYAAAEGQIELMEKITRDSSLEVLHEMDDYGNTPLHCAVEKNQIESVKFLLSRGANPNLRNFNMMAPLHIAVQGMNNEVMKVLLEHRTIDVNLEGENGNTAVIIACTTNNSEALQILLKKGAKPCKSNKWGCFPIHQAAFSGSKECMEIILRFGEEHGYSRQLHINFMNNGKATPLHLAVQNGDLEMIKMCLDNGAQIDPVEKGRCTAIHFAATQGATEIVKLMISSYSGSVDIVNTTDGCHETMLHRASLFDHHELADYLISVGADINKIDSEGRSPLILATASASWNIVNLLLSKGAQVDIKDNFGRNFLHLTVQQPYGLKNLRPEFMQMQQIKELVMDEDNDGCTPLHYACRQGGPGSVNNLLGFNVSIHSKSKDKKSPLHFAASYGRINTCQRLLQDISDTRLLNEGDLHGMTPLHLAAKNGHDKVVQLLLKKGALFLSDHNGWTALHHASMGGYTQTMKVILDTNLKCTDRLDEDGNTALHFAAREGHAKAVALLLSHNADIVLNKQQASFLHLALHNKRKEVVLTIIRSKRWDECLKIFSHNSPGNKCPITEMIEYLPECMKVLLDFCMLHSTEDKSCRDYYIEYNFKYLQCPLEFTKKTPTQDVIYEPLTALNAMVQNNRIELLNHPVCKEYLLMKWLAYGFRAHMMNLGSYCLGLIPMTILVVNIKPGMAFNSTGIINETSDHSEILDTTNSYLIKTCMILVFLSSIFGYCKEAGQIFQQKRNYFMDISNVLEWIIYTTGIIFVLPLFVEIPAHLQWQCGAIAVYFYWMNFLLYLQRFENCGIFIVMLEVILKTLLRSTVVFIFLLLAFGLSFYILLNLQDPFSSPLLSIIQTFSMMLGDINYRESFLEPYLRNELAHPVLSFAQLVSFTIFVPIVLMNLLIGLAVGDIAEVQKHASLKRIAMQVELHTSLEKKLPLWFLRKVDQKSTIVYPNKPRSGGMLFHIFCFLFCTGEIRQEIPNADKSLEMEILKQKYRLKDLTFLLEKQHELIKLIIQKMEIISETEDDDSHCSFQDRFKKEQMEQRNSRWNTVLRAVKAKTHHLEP
# [2] = biological target: T1, human TRPA1 channel (hTRPA1); assay: fluo-4 calcium imaging in hTRPA1-HEK vs control cells at […] ([…] of ionomycin, […] of SCA response)
# [3] = biological target: T1, human TRPA1 channel (hTRPA1); assay: whole-cell patch clamp in hTRPA1-HEK cells vs control cells; calcium imaging
Compound,activation at 100 µM [1] [%],further results
"CC(C)(c1ccc(O)cc1)c1ccc(O)cc1 [BPA, 4-[2-(4-hydroxyphenyl)propan-2-yl]phenol]",11,–
"O=C(OCc1ccccc1)c1ccc(O)cc1 [BzPa, Benzyl 4-hydroxybenzoate]",34.2,–
"Oc1c(Cl)cc(Cl)c(Cl)c1Cc1c(O)c(Cl)cc(Cl)c1Cl [HCP, 3,4,6-trichloro-2-[(2,3,5-trichloro-6-hydroxyphenyl)methyl]phenol]",–,activation at 10 µM [2]: 47%
"Oc1c(Cl)c(Cl)c(Cl)c(Cl)c1Cl [PCP, 2,3,4,5,6-pentachlorophenol]",–,EC50 [3]: 15 µM
